# Test results as given in the supplement of paper PMC11821682.
# How the values were obtained:
# Danio rerio embryo = test: BMC10 any morphological effect or mortality at 120 hpf; higher = less toxic
# Protocol: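 ZBEscreen: dechorionated Tropical 5D zebrafish embryos were exposed from 4 hpf in 96-well plates (1% DMSO, 28 °C). All compounds were first tested at 100 µM; hits were retested at 0.005-100 µM. Morphology and mortality were scored at 120 hpf and fitted as BMC10 (3-parameter log-logistic, extra risk). The embryonic photomotor response at 24 hpf and the larval photomotor response at 120 hpf are given as lowest effect levels (K-S test, p<0.01). NA = not significant up to 100 µM; NT = not tested.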
# HL-60 = test: Cell Health Index (toxicity pseudo-probability over dose series) (index 0-1); higher = more cytotoxic / cell stress;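 note: HL-60 cells exposed 4 h at 37 °C to ten threefold dilutions spanning 5 nM to 100 µM, multiparametric flow cytometry features scored by machine-learning classification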
SMILES,BMC10 any morphological effect or mortality (Danio rerio embryo) [µM],Cell Health Index (HL-60)
COc1cc2c(cc1Cc1cccc(Cl)c1F)c(=O)c(C(=O)O)cn2[C@H](CO)C(C)C [Elvitegravir],> 100,0.339
CC(C)[C@H](N)C(=O)OCC(CO)OCn1cnc2c(=O)nc(N)[nH]c21.Cl (some centres not stated) [Valganciclovir],> 100,0.247
COC(=O)c1cc(O)c(O)c(O)c1 [Methyl gallate],> 100,0.351
CCN(CC)Cc1ccc(C(=O)N(CCc2ccccc2OC)[C@@H]2CCNC2)cc1.Cl.Cl,> 100,0.318
Cl.c1ccc([C@H]2CN3CCSC3=N2)cc1 [(-)-Levamisole],> 100,0.173
CCCCc1nc(Cl)c(C=O)n1Cc1ccc(-c2ccccc2-c2nnn[nH]2)cc1 [Losartan carboxaldehyde],> 100,0.293
O=C(O)Cn1nnc(-c2cc(N3CCC(Oc4cc(F)ccc4Br)CC3)no2)n1 [MK-8245],> 100,0.226
COc1ncnc(NS(=O)(=O)c2ccc(N)cc2)c1OC [Sulfadoxin],> 100,0.201
CCCCCCCCCCCCCCCC(=O)NCCO [Palmitoyl ethanolamide],> 100,0.283
CC(O)(P(=O)([O-])O)P(=O)([O-])O.[Na+].[Na+] [Etidronic acid],> 100,0.198
Cc1nnnn1/N=C\c1ccc(O)c(C(c2ccc(O)cc2)c2cc(/C=N/n3nnnc3C)ccc2O)c1 (configuration not stated),> 100,0.389
CC1(C)[C@@H](O[C@H]2O[C@H](C(=O)O)[C@@H](O)[C@H](O)[C@H]2O[C@@H]2O[C@H](C(=O)O)[C@@H](O)[C@H](O)[C@H]2O)CC[C@]2(C)[C@H]3C(=O)C=C4[C@@H]5C[C@@](C)(C(=O)O)CC[C@]5(C)CC[C@@]4(C)[C@]3(C)CC[C@@H]12.N [Glycyrrhizin],> 100,0.295
OC[C@H]1O[C@@H](Oc2cc(O)cc(C=Cc3ccc(O)cc3)c2)[C@H](O)[C@@H](O)[C@@H]1O [Polydatin],> 100,0.106
CC(=O)N[C@@H](CC(C)C)C(=O)N[C@@H](CC(C)C)C(=O)N[C@H](C=O)CCCNC(=N)N.CC(=O)N[C@@H](CC(C)C)C(=O)N[C@@H](CC(C)C)C(=O)N[C@H](C=O)CCCNC(=N)N.O=S(=O)(O)O [Leupeptin],> 100,0.184
O=C(O)[C@H]1O[C@@H](Oc2cc3oc(-c4ccccc4)cc(=O)c3c(O)c2O)[C@H](O)[C@@H](O)[C@@H]1O [Baicalin],> 100,0.718
CCCCN1C[C@H](O)[C@@H](O)[C@H](O)[C@H]1CO.Cl [Miglustat],> 100,0.184
CC(C)C[C@H](NC(=O)[C@H](CCc1ccccc1)NC(=O)CN1CCOCC1)C(=O)N[C@@H](Cc1ccccc1)C(=O)N[C@@H](CC(C)C)C(=O)[C@@]1(C)CO1 [Carfilzomib],> 100,0.42
C=C[C@H]1C[N@@]2CC[C@H]1C[C@H]2[C@H](O)c1ccnc2ccc(OC)cc12 [Quinine],> 100,0.249
C=C[C@@H]1C2=CCOC(=O)C2=CO[C@H]1O[C@@H]1O[C@H](CO)[C@@H](O)[C@H](O)[C@H]1O [Gentiopicrin],> 100,0.225
Cc1c(O)c(=O)ccn1C [Deferiprone],> 100,0.256
CC(C)C1=C2[C@H]3CC[C@@H]4[C@@]5(C)CC[C@H](OC(=O)CC(C)(C)C(=O)O)C(C)(C)[C@@H]5CC[C@@]4(C)[C@]3(C)CC[C@@]2([C@@H](O)CN(CCN(C)C)Cc2ccc(Cl)cc2)CC1=O,> 100,0.422
O=c1cc(-c2ccc(O)c(O)c2)oc2c([C@@H]3O[C@H](CO)[C@@H](O)[C@H](O)[C@H]3O)c(O)cc(O)c12 [Orientin],> 100,0.337
Cc1nnc(C(=O)NC(C)(C)c2nc(C(=O)NCc3ccc(F)cc3)c([O-])c(=O)n2C)o1.[K+] [Raltegravir],> 100,0.218

SMILES,BMC10 any morphological effect or mortality (Danio rerio embryo) [µM],Cell Health Index (HL-60)
C[C@@]1(O)[C@H](O)[C@@H](CO)O[C@H]1n1cnc2c(N)ncnc21 [2'-C-Methyladenosine],> 100,0.266
Nc1nc2c(ncn2COCCO)c(=O)[nH]1 [Acyclovir],> 100,0.214
O=C(/C=C/c1ccccc1)NC(NC(=S)Nc1cccc2cccnc12)C(Cl)(Cl)Cl (configuration not stated) [Salubrinal],> 100,0.377
"O=C(/C=C/c1ccc(O)c(O)c1)O[C@@H]1[C@H](O)C[C@@](O)(C(=O)O)C[C@H]1OC(=O)/C=C/c1ccc(O)c(O)c1 [3,4-Dicaffeoylquinic acid]",> 100,0.416
"O=C(/C=C/c1ccc(O)c(O)c1)O[C@H]1[C@H](O)C[C@](O)(C(=O)O)C[C@H]1OC(=O)/C=C/c1ccc(O)c(O)c1 [4,5-Dicaffeoylquinic acid]",> 100,0.542
COC[C@H]1C[C@@H](c2ncc(-c3ccc4c(c3)COc3cc5c(ccc6nc([C@@H]7CC[C@H](C)N7C(=O)[C@@H](NC(=O)OC)C(C)C)[nH]c65)cc3-4)[nH]2)N(C(=O)[C@H](NC(=O)OC)c2ccccc2)C1 [Velpatasvir],> 100,0.286
Cc1ccc2c(=O)c3cccc(CC(=O)O)c3oc2c1C [Vadimezan],> 100,0.169
CC1(C)[C@@H]2CC[C@@]1(C)C(=O)C2 [(1R)-(+)-Camphor],> 100,0.135
COc1cc(OC)c2c(=O)nc(-c3cc(C)c(OCCO)c(C)c3)[nH]c2c1 [Apabetalone],> 100,0.344
COc1cc(NC(=O)Nc2cccc(CNC(=O)O[C@H]3CCOC3)c2)ccc1-c1cnco1 [Merimepodib],> 100,0.67
O=C(OC1OC2COC(=O)c3cc(O)c(O)c(O)c3-c3c(cc(O)c(O)c3O)C(=O)OC(C2O)C1O)c1cc(O)c(O)c(O)c1 (configuration not stated) [Corilagin],> 100,0.889
O=c1cc(-c2ccc(O)cc2)oc2cc(O)c(O)c(O)c12 [Scutellarein],> 100,0.815
C=C1CC[C@@H]2[C@](C)(CO[C@@H]3O[C@H](CO)[C@@H](O)[C@H](O)[C@H]3O)CCC[C@@]2(C)[C@@H]1CCC1=CCOC1=O [Neoandrographolide],> 100,0.21
Nc1nc(=O)c2ncn(COC(CO)CO)c2[nH]1 [Ganciclovir],> 100,0.179
COc1ccc([C@@H]2CC(=O)c3c(O)cc(O[C@@H]4O[C@H](CO[C@@H]5O[C@@H](C)[C@H](O)[C@@H](O)[C@H]5O)[C@@H](O)[C@H](O)[C@H]4O)cc3O2)cc1O [Hesperidin],> 100,0.204
Cl.NC12C[C@H]3C[C@@H](C1)C[C@@H](C2)C3 [Amantadine],> 100,0.195
Cc1cccc(C)c1OCC(=O)N[C@@H](Cc1ccccc1)[C@@H](O)C[C@H](Cc1ccccc1)NC(=O)[C@H](C(C)C)N1CCCNC1=O [Lopinavir],> 100,0.752
CC(C)(C)[C@@H]1NC(=O)O[C@@H]2CCC[C@H]2OC/C=C/C(F)(F)c2nc3ccccc3nc2O[C@@H]2C[C@@H](C(=O)N[C@]3(C(=O)NS(=O)(=O)C4(C)CC4)C[C@H]3C(F)F)N(C2)C1=O [Glecaprevir],> 100,0.369
"O=C(O)c1ccc2nc(-c3ccccc3)c(-c3ccccc3)nc2c1 [2,3-diphenylquinoxaline-6-carboxylic acid]",> 100,0.217
CCCC(CCC)C(=O)O [Valproic acid],> 100,0.188
O=C(NCc1c(F)cc(F)cc1F)c1cn2c(c(O)c1=O)C(=O)N1[C@H]3CC[C@H](C3)O[C@@H]1C2 [Bictegravir],> 100,0.35
CCCCc1nc(Cl)c(C(=O)O)n1Cc1ccc(-c2ccccc2-c2nnn[nH]2)cc1 [Losartan carboxylic acid],> 100,0.221
CC(C)=CCC[C@](C)(O[C@@H]1O[C@H](CO[C@@H]2O[C@H](CO)[C@@H](O)[C@H](O)[C@H]2O)[C@@H](O)[C@H](O)[C@H]1O)[C@H]1CC[C@]2(C)[C@@H]1[C@H](O)C[C@@H]1[C@@]3(C)CC[C@H](O[C@@H]4O[C@H](CO)[C@@H](O)[C@H](O)[C@H]4O[C@@H]4O[C@H](CO)[C@@H](O)[C@H](O)[C@H]4O)C(C)(C)[C@@H]3CC[C@]12C [Ginsenoside Rb1],> 100,0.145
